{"source": "patent US6770597B2", "about": "“Benzohydrazide derivatives as herbicides and desiccant compositions containing them” (Ishihara Sangyo Kaisha, Ltd., priority 2002, dated 2004)", "type_in_all_cases": "in vivo", "key": {"[1]": {"tested_on": "barnyardgrass (Echinochloa crus-galli, ECHCG)", "test": "Greenhouse herbicide screen, post-emerge application, phytotoxicity rating", "conditions": "POST emergent, 14 days after application, scale 0-100", "how_it_was_run": "(§1)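 Compounds in acetone were track-sprayed at 187 l/ha, 15–1000 g ai/ha, nozzle 40–45 cm above canopy or soil. Pre-emerge seeds were sown 1 day before; post-emerge plants were at 2–3 leaves. Injury was rated 0–100 (0 none, 100 complete death) at 14 days after application.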"}, "[2]": {"tested_on": "cocklebur (Xanthium strumarium, XANST)", "test": "Greenhouse herbicide screen, post-emerge application, phytotoxicity rating", "conditions": "POST emergent, 14 days after application, scale 0-100", "how_it_was_run": "as §1"}, "[3]": {"tested_on": "common ragweed (Ambrosia artemisiifolia L., AMBEL)", "test": "Greenhouse herbicide screen, post-emerge application, phytotoxicity rating", "conditions": "POST emergent, 14 days after application, scale 0-100", "how_it_was_run": "as §1"}, "[4]": {"tested_on": "green foxtail (Setaria viridis, SETVI)", "test": "Greenhouse herbicide screen, post-emerge application, phytotoxicity rating", "conditions": "POST emergent, 14 days after application, scale 0-100", "how_it_was_run": "as §1"}, "[5]": {"tested_on": "ivyleaf morningglory (Ipomoea hederacea, IPOHE)", "test": "Greenhouse herbicide screen, post-emerge application, phytotoxicity rating", "conditions": "POST emergent, 14 days after application, scale 0-100", "how_it_was_run": "as §1"}, "[6]": {"tested_on": "johnsongrass (Sorghum halepense, SORHA)", "test": "Greenhouse herbicide screen, post-emerge application, phytotoxicity rating", "conditions": "POST emergent, 14 days after application, scale 0-100", "how_it_was_run": "as §1"}, "[7]": {"tested_on": "lambsquarters (Chenopodium album, CHEAL)", "test": "Greenhouse herbicide screen, post-emerge application, phytotoxicity rating", "conditions": "POST emergent, 14 days after application, scale 0-100", "how_it_was_run": "as §1"}, "[8]": {"tested_on": "large crabgrass (Digitaria sanguinalis, DIGSA)", "test": "Greenhouse herbicide screen, post-emerge application, phytotoxicity rating", "conditions": "POST emergent, 14 days after application, scale 0-100", "how_it_was_run": "as §1"}, "[9]": {"tested_on": "redroot pigweed (Amaranthus retrofiexus, AMARE)", "test": "Greenhouse herbicide screen, post-emerge application, phytotoxicity rating", "conditions": "POST emergent, 14 days after application", "how_it_was_run": "as §1"}, "[10]": {"tested_on": "sicklepod (Cassia obtusifolia, CASOB)", "test": "Greenhouse herbicide screen, post-emerge application, phytotoxicity rating", "conditions": "POST emergent, 14 days after application, scale 0-100", "how_it_was_run": "as §1"}, "[11]": {"tested_on": "velvetleaf (Abutilon theophrasti, ABUTH)", "test": "Greenhouse herbicide screen, post-emerge application, phytotoxicity rating", "conditions": "POST emergent, 14 days after application, scale 0-100", "how_it_was_run": "as §1"}, "[12]": {"tested_on": "field corn (Zea mays L., var. Dekalb 535, CORN)", "test": "Greenhouse herbicide screen, post-emerge application, crop damage rating", "conditions": "POST emergent, 14 days after application, scale 0-100", "how_it_was_run": "as §1"}, "[13]": {"tested_on": "upland rice (Oryza sp., var.Cocodrie, RICE)", "test": "Greenhouse herbicide screen, post-emerge application, crop damage rating", "conditions": "POST emergent, 14 days after application, scale 0-100", "how_it_was_run": "as §1"}, "[14]": {"tested_on": "barnyardgrass (Echinochloa crus-galli, ECHCG)", "test": "Greenhouse herbicide screen, pre-emerge application, phytotoxicity rating", "conditions": "PRE emergent, 14 days after application, rating scale 0-100", "how_it_was_run": "as §1"}, "[15]": {"tested_on": "cocklebur (Xanthium strumarium, XANST)", "test": "Greenhouse herbicide screen, pre-emerge application, phytotoxicity rating", "conditions": "PRE emergent, 14 days after application, rating scale 0-100", "how_it_was_run": "as §1"}, "[16]": {"tested_on": "common ragweed (Ambrosia artemisiifolia L., AMBEL)", "test": "Greenhouse herbicide screen, pre-emerge application, phytotoxicity rating", "conditions": "PRE emergent, 14 days after application, rating scale 0-100", "how_it_was_run": "as §1"}, "[17]": {"tested_on": "green foxtail (Setaria viridis, SETVI)", "test": "Greenhouse herbicide screen, pre-emerge application, phytotoxicity rating", "conditions": "PRE emergent, 14 days after application, rating scale 0-100", "how_it_was_run": "as §1"}, "[18]": {"tested_on": "ivyleaf morningglory (Ipomoea hederacea, IPOHE)", "test": "Greenhouse herbicide screen, pre-emerge application, phytotoxicity rating", "conditions": "PRE emergent, 14 days after application, rating scale 0-100", "how_it_was_run": "as §1"}, "[19]": {"tested_on": "johnsongrass (Sorghum halepense, SORHA)", "test": "Greenhouse herbicide screen, pre-emerge application, phytotoxicity rating", "conditions": "PRE emergent, 14 days after application, rating scale 0-100", "how_it_was_run": "as §1"}, "[20]": {"tested_on": "lambsquarters (Chenopodium album, CHEAL)", "test": "Greenhouse herbicide screen, pre-emerge application, phytotoxicity rating", "conditions": "PRE emergent, 14 days after application, rating scale 0-100", "how_it_was_run": "as §1"}, "[21]": {"tested_on": "large crabgrass (Digitaria sanguinalis, DIGSA)", "test": "Greenhouse herbicide screen, pre-emerge application, phytotoxicity rating", "conditions": "PRE emergent, 14 days after application, rating scale 0-100", "how_it_was_run": "as §1"}, "[22]": {"tested_on": "redroot pigweed (Amaranthus retrofiexus, AMARE)", "test": "Greenhouse herbicide screen, pre-emerge application, phytotoxicity rating", "conditions": "PRE emergent, 14 days after application, rating scale 0-100", "how_it_was_run": "as §1"}, "[23]": {"tested_on": "sicklepod (Cassia obtusifolia, CASOB)", "test": "Greenhouse herbicide screen, pre-emerge application, phytotoxicity rating", "conditions": "PRE emergent, 14 days after application, rating scale 0-100", "how_it_was_run": "as §1"}, "[24]": {"tested_on": "velvetleaf (Abutilon theophrasti, ABUTH)", "test": "Greenhouse herbicide screen, pre-emerge application, phytotoxicity rating", "conditions": "PRE emergent, 14 days after application, rating scale 0-100", "how_it_was_run": "as §1"}, "[25]": {"tested_on": "field corn (Zea mays L., var. Dekalb 535, CORN)", "test": "Greenhouse herbicide screen, pre-emerge application, crop damage rating", "conditions": "PRE emergent, 14 days after application, rating scale 0-100", "how_it_was_run": "as §1"}, "[26]": {"tested_on": "upland rice (Oryza sp., var.Cocodrie, RICE)", "test": "Greenhouse herbicide screen, pre-emerge application, crop damage rating", "conditions": "PRE emergent, 14 days after application, rating scale 0-100", "how_it_was_run": "as §1"}}, "data": [{"smiles": "Cn1c(C(F)(F)F)cc(=O)n(-c2cc(C(=O)NN(Cc3ccccc3)Cc3ccccc3)c(Cl)cc2F)c1=O", "note": "[Compound 1-29]", "values": [{"measurement": "phytotoxicity rating ECHCO", "setting": "[1]; 63 g ai/ha", "result": 55}, {"measurement": "phytotoxicity rating ECHCO", "setting": "[1]; 250 g ai/ha", "result": 100}, {"measurement": "phytotoxicity rating XANST", "setting": "[2]; 63 g ai/ha", "result": 0}, {"measurement": "phytotoxicity rating XANST", "setting": "[2]; 250 g ai/ha", "result": 90}, {"measurement": "phytotoxicity rating AMBEL", "setting": "[3]; 63 g ai/ha", "result": 75}, {"measurement": "phytotoxicity rating AMBEL", "setting": "[3]; 250 g ai/ha", "result": 100}, {"measurement": "phytotoxicity rating SETVI", "setting": "[4]; 63 g ai/ha", "result": 99}, {"measurement": "phytotoxicity rating SETVI", "setting": "[4]; 250 g ai/ha", "result": 100}, {"measurement": "phytotoxicity rating IPOHE", "setting": "[5]; 63 g ai/ha", "result": 90}, {"measurement": "phytotoxicity rating IPOHE", "setting": "[5]; 250 g ai/ha", "result": 100}, {"measurement": "phytotoxicity rating SORHA", "setting": "[6]; 63 g ai/ha", "result": 99}, {"measurement": "phytotoxicity rating SORHA", "setting": "[6]; 250 g ai/ha", "result": 100}, {"measurement": "phytotoxicity rating CHEAL", "setting": "[7]; 63 g ai/ha", "result": 100}, {"measurement": "phytotoxicity rating CHEAL", "setting": "[7]; 250 g ai/ha", "result": 100}, {"measurement": "phytotoxicity rating DIGSA", "setting": "[8]; 63 g ai/ha", "result": 85}, {"measurement": "phytotoxicity rating DIGSA", "setting": "[8]; 250 g ai/ha", "result": 100}, {"measurement": "phytotoxicity rating AMARE", "setting": "[9]; 63 g ai/ha, scale 0-100 (0 no damage, 100 complete death)", "result": 100}, {"measurement": "phytotoxicity rating AMARE", "setting": "[9]; 250 g ai/ha, scale 0-100", "result": 100}, {"measurement": "phytotoxicity rating CASOB", "setting": "[10]; 63 g ai/ha", "result": 50}, {"measurement": "phytotoxicity rating CASOB", "setting": "[10]; 250 g ai/ha", "result": 100}, {"measurement": "phytotoxicity rating ABUTH", "setting": "[11]; 63 g ai/ha", "result": 100}, {"measurement": "phytotoxicity rating ABUTH", "setting": "[11]; 250 g ai/ha", "result": 100}, {"measurement": "crop damage rating CORN", "setting": "[12]; 63 g ai/ha", "result": 10}, {"measurement": "crop damage rating CORN", "setting": "[12]; 250 g ai/ha", "result": 50}, {"measurement": "crop damage rating RICE", "setting": "[13]; 63 g ai/ha", "result": 0}, {"measurement": "crop damage rating RICE", "setting": "[13]; 250 g ai/ha", "result": 10}, {"measurement": "phytotoxicity rating ECHCG", "setting": "[14]; 63 g ai/ha", "result": 55}, {"measurement": "phytotoxicity rating ECHCG", "setting": "[14]; 250 g ai/ha", "result": 100}, {"measurement": "phytotoxicity rating XANST", "setting": "[15]; 63 g ai/ha", "result": 0}, {"measurement": "phytotoxicity rating XANST", "setting": "[15]; 250 g ai/ha", "result": 90}, {"measurement": "phytotoxicity rating AMBEL", "setting": "[16]; 63 g ai/ha", "result": 75}, {"measurement": "phytotoxicity rating AMBEL", "setting": "[16]; 250 g ai/ha", "result": 100}, {"measurement": "phytotoxicity rating SETVI", "setting": "[17]; 63 g ai/ha", "result": 99}, {"measurement": "phytotoxicity rating SETVI", "setting": "[17]; 250 g ai/ha", "result": 100}, {"measurement": "phytotoxicity rating IPOHE", "setting": "[18]; 63 g ai/ha", "result": 90}, {"measurement": "phytotoxicity rating IPOHE", "setting": "[18]; 250 g ai/ha", "result": 100}, {"measurement": "phytotoxicity rating SORHA", "setting": "[19]; 63 g ai/ha", "result": 99}, {"measurement": "phytotoxicity rating SORHA", "setting": "[19]; 250 g ai/ha", "result": 100}, {"measurement": "phytotoxicity rating CHEAL", "setting": "[20]; 63 g ai/ha", "result": 100}, {"measurement": "phytotoxicity rating CHEAL", "setting": "[20]; 250 g ai/ha", "result": 100}, {"measurement": "phytotoxicity rating DIGSA", "setting": "[21]; 63 g ai/ha", "result": 85}, {"measurement": "phytotoxicity rating DIGSA", "setting": "[21]; 250 g ai/ha", "result": 100}, {"measurement": "phytotoxicity rating AMARE", "setting": "[22]; 63 g ai/ha", "result": 100}, {"measurement": "phytotoxicity rating AMARE", "setting": "[22]; 250 g ai/ha", "result": 100}, {"measurement": "phytotoxicity rating CASOB", "setting": "[23]; 63 g ai/ha", "result": 50}, {"measurement": "phytotoxicity rating CASOB", "setting": "[23]; 250 g ai/ha", "result": 100}, {"measurement": "phytotoxicity rating ABUTH", "setting": "[24]; 63 g ai/ha", "result": 100}, {"measurement": "phytotoxicity rating ABUTH", "setting": "[24]; 250 g ai/ha", "result": 100}, {"measurement": "crop damage rating CORN", "setting": "[25]; 63 g ai/ha", "result": 10}, {"measurement": "crop damage rating CORN", "setting": "[25]; 250 g ai/ha", "result": 50}, {"measurement": "crop damage rating RICE", "setting": "[26]; 63 g ai/ha", "result": 0}, {"measurement": "crop damage rating RICE", "setting": "[26]; 250 g ai/ha", "result": 10}]}]}
